Measurements published in PMC6374954, “Design, synthesis, and biological evaluation of novel derivatives of dithiodiglycolic acid prepared via oxidative coupling of thiols” (Journal of Enzyme Inhibition and Medicinal Chemistry, 2019).
Read-outs that look alike come from different tables or passages of the source.

Columns and labels:
[1] = molecular target: TrxR; parameters: method as in PMID 27977313; conditions: read-out: Ki value toward the enzyme; cited from earlier work
[2] = tested on: TrxR1; conditions: cited from earlier work
[3] = molecular target: T1, TrxR1 (Homo sapiens, UniProt Q16881); test: TrxR inhibition assay (DTNB), SH-SY5Y cell lysate; format: biochemical; conditions: for IC50: neuroblastoma (SHSY5Y) lysate, mean ± SEM (n = 3)
T1 construct: For TrxR assay, lysate from SH-SY5Y cells and rat liver were used; endogenous in cells; host or cells: SH-SY5Y human neuroblastoma cells (10,000 x g supernatant of the homogenate)
T1 sequence (Q16881 151-649 limits assumed): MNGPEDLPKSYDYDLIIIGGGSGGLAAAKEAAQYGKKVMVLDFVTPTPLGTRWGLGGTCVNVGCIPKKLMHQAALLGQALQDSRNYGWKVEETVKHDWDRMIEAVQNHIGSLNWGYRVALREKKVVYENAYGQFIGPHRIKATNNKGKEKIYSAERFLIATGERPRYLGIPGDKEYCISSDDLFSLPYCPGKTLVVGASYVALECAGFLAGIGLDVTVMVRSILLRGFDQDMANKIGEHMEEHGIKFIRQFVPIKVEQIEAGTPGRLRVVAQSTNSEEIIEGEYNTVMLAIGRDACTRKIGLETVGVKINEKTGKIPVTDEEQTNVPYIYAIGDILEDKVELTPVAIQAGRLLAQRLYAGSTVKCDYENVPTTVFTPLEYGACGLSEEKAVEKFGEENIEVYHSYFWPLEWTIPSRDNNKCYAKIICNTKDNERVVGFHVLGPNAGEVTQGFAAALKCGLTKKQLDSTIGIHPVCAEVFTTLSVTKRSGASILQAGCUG
Procedure: (§3) For TrxR assay, lysate from SH-SY5Y cells and rat liver were used. SHSY5Y cells were washed twice with phosphate buffer solution (PBS) and harvested from the flask with a scraper. Cells were homogenised in ice-cold 50 mM potassium phosphate buffer (pH 7.4), containing 1 mM EDTA, with Ultra Turrax T25 (Ikawerk, Janke and Kunkel Inc., Staufen, Germany). The homogenates were centrifuged at 10,000 × g for 15 min at 4 °C. The protein concentrations of the supernatants were determined using a Bio-Rad protein assay kit (Bio-Rad Laboratories, USA). TrxR activity was assayed using 5,5-dithio-bis-(2-nitrobenzoic acid) (DTNB, Sigma-Aldrich, USA) as substrate[21]. The reactions were run on a 96-well plates, final volume of 100 µl in 50 mM potassium phosphate buffer (pH 7.0), containing 50 µg of the cell lysate proteins, 1-mM EDTA, 50 mM KCl, 0.2 mg/ml bovine serum albumin, 0.25 mM NADPH (Acros Organics, USA). Reaction mixture was incubated for 15 min at room temperature in plate shaker (PST-60HL-4, BioSan, Riga, Latvia); afterwards DTNB was added to the total concentration of 2.5 mM. Enzyme kinetics was monitored on a Tecan Infinite1000 microplate reader, by measuring the increase in absorbance at 412 nm for 20 min. The background TrxR-independent reduction of DTNB in the cell lysates, as determined in the presence of aurothiomalate (200 µM), was subtracted from each value[22]. Reaction mixture with rat liver lysate contained 35 µg of proteins, 1 mM EDTA, 50 mM KCl, 0.2 mg/ml bovine serum albumin, 0.25 mM NADPH, and 2.5 mM DTNB. Reactions with rat liver lysate were run in the same manner as cell lysates.

[4] = molecular target: T2, TrxR1 (Rattus norvegicus, UniProt O89049); test: TrxR inhibition assay (DTNB), rat liver (hepatocyte) lysate
T2 sequence (O89049 1-499): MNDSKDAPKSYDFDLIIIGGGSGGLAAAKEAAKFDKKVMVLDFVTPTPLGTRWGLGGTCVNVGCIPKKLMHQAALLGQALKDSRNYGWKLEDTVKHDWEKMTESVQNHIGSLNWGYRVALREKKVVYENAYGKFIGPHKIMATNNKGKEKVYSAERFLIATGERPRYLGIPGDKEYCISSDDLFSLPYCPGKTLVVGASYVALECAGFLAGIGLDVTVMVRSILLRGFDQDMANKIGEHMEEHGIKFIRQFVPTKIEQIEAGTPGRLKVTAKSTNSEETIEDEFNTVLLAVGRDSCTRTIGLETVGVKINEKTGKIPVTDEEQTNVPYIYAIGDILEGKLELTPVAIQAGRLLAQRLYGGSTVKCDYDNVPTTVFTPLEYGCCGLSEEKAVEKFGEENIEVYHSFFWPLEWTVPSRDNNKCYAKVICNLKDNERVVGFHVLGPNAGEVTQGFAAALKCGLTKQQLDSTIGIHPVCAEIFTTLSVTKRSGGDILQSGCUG
Procedure: as §3

[5] = tested on: SHSY5Y cells; test: Cytotoxicity assay (MTT), SH-SY5Y; format: cell-based, human; conditions: 72 h, mean ± SEM (n = 3)
Procedure: (§1) Human neuroblastoma cells (SH-SY5Y) were grown in 1:1 mixture of Eagle's Minimum Essential Medium and F12 Medium (Sigma) supplemented with 10% foetal bovine serum (Sigma). Human keratinocytes (HaCaT) were grown in DMEM, supplemented with 10% foetal bovine serum, 2 mM L-glutamine, 5000 U/ml penicillin, and 5 mg/ml streptomycin. Human glioblastoma cell (U87-MG) were grown in Minimum Essential Media (MEM), containing 10% foetal bovine serum, 2 mM L-glutamine, 5,000 U/ml penicillin, and 5 mg/ml streptomycin. All cell lines were obtained from American Type Culture Collection (ATCC, Rockville, MD). All cell lines were grown at 37 °C in a humidified 5% CO2 atmosphere.
(§2) Cells grown in 25 cm^2 tissue flasks were trypsinized, seeded into flat-bottomed adherent 96-well cell culture plates in appropriate medium (SH-SY5Y 12,000 cells/well, U87-MG 4000 cells/well, HaCaT 2000 cells/well) and incubated overnight; afterwards the cells were exposed to different concentrations of the tested compounds for 72 h. Cell viability was measured by MTT assay. Briefly, after incubation with the compounds, medium containing 0.2 mg/ml MTT was added. After incubation (3 h, 37 °C, 5% CO2), the MTT-containing medium was removed, and 200 µl of dimethyl sulfoxide (DMSO) was immediately added to each sample. The samples were assessed at 540 nm on LKB 5060–006 Microplate Reader (Vienna, Austria) microplate reader. The half-maximal inhibitory concentration (IC50) of each compound was calculated using Graph Pad Prism® 6.0 (GraphPad Software, Inc., USA).

[6] = tested on: HaCaT cells; test: Cytotoxicity assay (MTT), HaCaT; format: cell-based, human; conditions: 72 h, mean ± SEM (n = 3)
Procedure: as §1, §2

[7] = tested on: U87 cells; test: Cytotoxicity assay (MTT), U87; format: cell-based, human; conditions: for CC50: U87 cells, 72 h, MTT, mean ± SEM (n = 3)
Procedure: as §1, §2

[8] = Cytotoxicity assay (MTT), SH-SY5Y; format: cell-based, human; conditions: human, SH-SY5Y neuroblastoma cells, SHSY5Y cells, mean ± SEM (n = 3)
Procedure: as §1, §2

[9] = Cytotoxicity assay (MTT), HaCaT; format: cell-based, human; conditions: human, HaCaT keratinocytes, HaCaT cells, mean ± SEM (n = 3)
Procedure: as §1, §2

[10] = Cytotoxicity assay (MTT), U87; format: cell-based, human; conditions: human, U87-MG glioblastoma cells; U87 cells; 72 h; MTT; mean ± SEM (n = 3)
Procedure: as §1, §2

[11] = molecular target: T2, TrxR1
Procedure: as §3

[12] = TrxR IC50 Hepatocyte lysate, mean ± SEM (n = 3)
[13] = read-out: TrxR IC50 Hepatocyte lysate, mean ± SEM (n = 3)

CCC(C)SSc1ncc[nH]1 (stereo not shown) [Compound 2]
Ki [1]: 31 µM

O=S(=O)(O)CCSSCCS(=O)(=O)O [Compound 4, disodium 2,2′-dithio-bis-ethane sulphonate]
Km ([2]; TrxR substrate analogue, read-out: Km value): 72 µM

CN1C(=O)[C@@]23C[C@]4([C@]56C[C@@]78SS[C@@](CO)(C(=O)N7[C@H]5Nc5ccccc56)N(C)C8=O)c5ccccc5N[C@@H]4N2C(=O)[C@]1(CO)SS3 [Compound 5, chaetocin]
Km ([2]; TrxR1, substrate-competitive inhibition profile, read-out: Km values): 4.6 µM

CN1C(=O)[C@]23CC4=CC=C[C@H](O)[C@H]4N2C(=O)[C@@]1(CO)SS3 [Compound 6, gliotoxin]
Km ([2]; read-out: Km values): 16.9 µM

O=C(CSSCC(=O)N1CCCC1)N1CCCC1 [Compound 11a, 2,2′-Disulfanediylbis(1-(pyrrolidin-1-yl)ethan-1-one)]
IC50 [3]: > 200 µM
IC50 [4, 12]: 170 ± 54.2 µM

CCCNC(=O)CSSCC(=O)NCCC [Compound 11b]
IC50 [3]: > 200 µM
CC50 [5]: 220 ± 15.3 µM
IC50 [4, 13]: 26.5 ± 2.9 µM
CC50 [6]: 58.4 ± 5 µM
times more active against U87 cell line compared to the other three compounds ([7]; U87, versus 11d, 11g, 12a): 2–3 times
CC50 [7]: 54.6 ± 3.4 µM

O=C(CSSCC(=O)N1CCOCC1)N1CCOCC1 [Compound 11c]
IC50 [3]: 190 ± 78.4 µM
IC50 [4, 13]: 182 ± 32.2 µM

O=C(CSSCC(=O)NC1CC1)NC1CC1 [Compound 11d]
IC50 [3]: 63.6 ± 27.5 µM
CC50 [5]: 202 ± 12 µM
IC50 [4, 13]: 34.7 ± 9.1 µM
CC50 [6]: 69 ± 3.4 µM
CC50 [7]: 180 ± 12.6 µM

COc1ccc(CNC(=O)CSSCC(=O)NCc2ccc(OC)cc2)cc1 [Compound 11e]
IC50 [3]: > 200 µM
IC50 [4, 13]: > 200 µM

CN1CCN(C(=O)CSSCC(=O)N2CCN(C)CC2)CC1 [Compound 11f]
IC50 [3]: > 200 µM
IC50 [4, 13]: > 200 µM

CC(C)(C)NC(=O)CSSCC(=O)NC(C)(C)C [Compound 11g]
inhibitory activity against neuroblastoma (SHSY5Y) cell lysate (in words) [3]: virtually no activity
IC50 [3]: > 200 µM
CC50 [5]: 174 ± 18.3 µM
IC50 [4, 13]: 22.2 ± 3.1 µM
CC50 [6]: 43 ± 2.9 µM
CC50 [7]: 125 ± 15.6 µM

O=C(CSSCC(=O)Nc1ccc(F)cc1)Nc1ccc(F)cc1 [Compound 11h]
IC50 [3]: > 200 µM
IC50 [4, 13]: > 200 µM

COc1ccc(NC(=O)CSSCC(=O)Nc2ccc(OC)cc2)cc1 [Compound 11i]
IC50 [3]: > 200 µM
IC50 [4, 13]: > 200 µM

NC(=O)CSSCC(N)=O [Compound 11j]
inhibitory activity against neuroblastoma (SHSY5Y) cell lysate (in words) [3]: virtually no activity
IC50 [3]: > 200 µM
IC50 [4, 13]: 90.4 ± 18.7 µM

CCCNC(=O)CSSCC(=O)N1CCOCC1 [Compound 12a, 2-((2-Morpholino-2-oxoethyl)disulfanyl)-N-propylacetamide]
IC50 [3]: 44.4 ± 15.1 µM
CC50 at 72 h [8]: 176 ± 13.4 µM
IC50 [4, 12]: 45.6 ± 6.8 µM
CC50 at 72 h [9]: 71.8 ± 6.9 µM
CC50 at 72 h [10]: 187 ± 15.9 µM

COC(=O)CSSCC(=O)Nc1ccc(F)cc1 [Compound 13a, Methyl 2-((2-((4-fluorophenyl)amino)-2-oxoethyl)disulfanyl)acetate]
IC50 [3]: 186 ± 83.8 µM
IC50 [4, 12]: > 200 µM

O=C(O)CSSCC(=O)O [Compound 14, 2,2′-disulfanediyldiacetic acid, reference compound]
inhibitory activity against neuroblastoma (SHSY5Y) cell lysate (in words) [3]: virtually no activity
IC50 [3]: > 200 µM
IC50 [4, 12]: > 200 µM

O=C([O-])CSSCC(=O)[O-].[Na+].[Na+] [Compound 15, 2,2′-disulfanediyldiacetic acid disodium salt, reference compound]
inhibitory activity against neuroblastoma (SHSY5Y) cell lysate (in words) [3]: completely devoid of inhibitory activity
IC50 [3]: > 200 µM
activity against liver cell lysate (in words) [11]: completely devoid of inhibitory activity

COC(=O)CSSCC(=O)OC [Compound 17, Dimethyl 2,2′-disulfanediyldiacetate]
inhibitory activity against neuroblastoma (SHSY5Y) cell lysate (in words) [3]: virtually no activity
IC50 [3]: > 200 µM
IC50 [4, 12]: > 200 µM
